# According to patent US6509343B1 (priority 1996, dated 2003):
# How the values were obtained:
# Format in all cases: in vivo
# Pyrenophora teres = Pyrenophora teres test (barley)/curative; conditions: 6.25 g/ha, curative, 7 days after inoculation
# Protocol: Solvent: 25 parts by weight of N,N-dimethylacetamide
# Emulsifier: 0.6 part by weight of alkylaryl polyglycol ether
# To produce a suitable preparation of active compound, 1 part by weight of active compound or active compound combination is mixed with the stated amounts of solvent and emulsifier, and the concentrate is diluted with water to the desired concentration.
# To test for curative activity, young plants are sprayed with a conidia suspension of Pyrenophora teres. The plants remain in an incubation cabin at 20° C. and 100% relative atmospheric humidity for 48 hours. The plants are subsequently sprayed with the preparation of active compound at the stated application rate.
# The plants are placed in a greenhouse at a temperature of about 20° C. and a relative atmospheric humidity of about 80%.
# Evaluation is carried out 7 days after the inoculation. 0% means an efficacy which corresponds to that of the control, whereas an efficacy of 100% means that no infection is observed.
# Fusarium nivale = Fusarium nivale test (triticale)/seed treatment; conditions: about 3 weeks after sowing
# Protocol: The active compounds are applied as a dry seed dressing. This is prepared by extending the respective active compound with ground mineral to give a finely pulverulent mixture which ensures uniform distribution on the seed surface.
# To dress the seed, the infected seed together with the seed dressing is shaken for 3 minutes in a sealed glass flask.
# 2×100 corns of triticale are sown at a depth of 1 cm in standard soil and cultivated in a greenhouse at a temperature of about 10° C. and a relative atmospheric humidity of about 95% in seed trays which receive a light regimen of 15 hours per day.
# About 3 weeks after sowing, the plants are evaluated for symptoms of snow mould. 0% means an efficacy which corresponds to that of the untreated control, while an efficacy of 100% means that no disease is observed.
# Phytophthora infestans = assay: whole plant or invertebrate
# [1] = Phytophthora infestans, in Solanum lycopersicum, 72 h, read-out: % efficacy
smiles,measurement,setting,value
"CC(C)(C)C(O)C(Oc1ccc(Cl)cc1)n1cncn1 (stereo not shown) [(F), triadimenol]",Efficacy in %,Pyrenophora teres,0%
"N#Cc1c[nH]cc1-c1cccc(Cl)c1Cl [(Fenpiclonil) z, fenpiclonil]",Efficacy in %,Fusarium nivale; 75 mg/kg of seed,67%
CON=C(C1=NOCCO1)c1ccccc1Oc1ncnc(Oc2ccccc2Cl)c1F [(I)],Efficacy in %,Pyrenophora teres,0%
"O=C(Nc1ccccc1)N(Cc1ccc(Cl)cc1)C1CCCC1 [(Pencycuron) P, pencycuron]",Efficacy in %,Fusarium nivale; 25 mg/kg of seed,29%
"CCC1(C(=O)NC(C)c2ccc(Cl)cc2)C(C)C1(Cl)Cl [(ω), N-(R)-[1-(4-chloro-phenyl)-ethyl]-2,2-dichloro-1ethyl-3t-methyl-1r-cyclopropane-carboxamide]",Emax at 5 g/ha,Phytophthora infestans; [1],3%
"CCNC(=O)NC(=O)/C(C#N)=N/OC [Cymoxanil (M), cymoxanil]",% efficacy,Phytophthora infestans; in vivo,12%
"COc1ccc(/C(=C\C(=O)N2CCOCC2)c2ccc(Cl)cc2)cc1OC [Dimetomorph (L), dimetomorph]",Emax at 1 g/ha,Phytophthora infestans; [1],0%
